Series [1] addresses T1, HIV-1HXB2 Env (Human immunodeficiency virus type 1 group M subtype B, UniProt P04578).
T1 construct: HL2/3 cells, which stably express high levels of Env, Gag, Tat, Rev, and Nef proteins of the integrated HIV-1 molecular clone HXB2/3gpt; host or cells: HL2/3 cells (effector), cocultured with TZM-bl target cells
Briefly: HIV-1HXB2 Env-mediated cell-cell fusion (HL2/3 effector, TZM-bl target, luciferase reporter). It is filed as cell-based. The protocol: The inhibitory activities of inhibitors on HIV-1HXB2 Env-mediated cell-cell fusion were determined by a reporter gene assay based on the activation of an HIV LTR-driven luciferase cassette in TZM-bl cells (target) by HIV-1 tat from HL2/3 cells (effector). Briefly, 1 x 10^4/well of TZM-bl cells were plated in 96-well plates and incubated at 37°C overnight. Then, 3 x 10^4/well of HL2/3 cells were cocultured with target cells for 6 h at 37°C in the presence or absence of an inhibitor at graded concentrations. Luciferase activity was measured using luciferase assay reagents and a Luminescence Counter (Promega, Madison, Wisconsin, USA).

Series [2] has as its system HIV-1NL4-3(D36G) pseudovirus. It is filed as cell-based. Conditions: Fig 1; NL4-3(D36G) pseudovirus; mean ± SD of three assays in triplicate; read-out: Anti-HIV activity (IC50, pM) NL4-3 entry. The protocol:
The inhibitory activities of inhibitors against HIV-1 pseudoviruses and replication-competent isolates were measured as described previously. Briefly, HIV-1 pseudoviruses were generated via the cotransfection of HEK293T cells with an Env-expressing plasmid and a backbone plasmid that encodes Env-defective, luciferase-expressing HIV-1 genome (pSG3Δenv). Viral stocks of replication-competent HIV-1 isolates were generated by transfecting viral molecular clones into HEK293T cells. […] Inhibitors were prepared in 3-fold dilutions, mixed with 100 TCID50 of a virus, and then incubated for 1 h at room temperature. […] Luciferase activity was measured as described above.

The target in series [3] is HIV-1JRCSF. It counts as cell-based. Conditions: Fig 1; replication-competent virus; mean ± SD of three assays in triplicate; read-out: Anti-HIV activity (IC50, pM) JRCSF infection. The protocol:
The inhibitory activities of inhibitors against HIV-1 pseudoviruses and replication-competent isolates were measured as described previously. Briefly, HIV-1 pseudoviruses were generated via the cotransfection of HEK293T cells with an Env-expressing plasmid and a backbone plasmid that encodes Env-defective, luciferase-expressing HIV-1 genome (pSG3Δenv). Viral stocks of replication-competent HIV-1 isolates were generated by transfecting viral molecular clones into HEK293T cells. Culture supernatants were harvested at 48 h posttransfection, and 50% tissue culture infectious doses (TCID50) in TZM-bl cells were determined. Inhibitors were prepared in 3-fold dilutions, mixed with 100 TCID50 of a virus, and then incubated for 1 h at room temperature. The mixture was added to TZM-bl cells (10^4/well), and the cells were incubated for additional 48 h at 37°C. Luciferase activity was measured as described above.

Series [4] addresses T2, gp41 NHR-derived target mimic peptide N39 (Human immunodeficiency virus type 1 group M subtype B, UniProt P04578).
T2 construct: the gp41 NHR-derived target mimic peptide N39
Briefly: CD spectroscopy of lipopeptides in complex with target mimic peptide N39. It counts as binding, HIV-1. The arrangement: [θ]222: unit not given here. The following applies: complex with N39, each peptide 10 μM in PBS; representative of 2 assays. From the text: Spectra were corrected by subtracting a solvent blank.

The conditions of series [5]: lipopeptide alone, 10 μM in PBS, representative of 2 assays; for Helix content (%): [θ]222 / -33,000.

Peptide text beside a SMILES is read from it. * marks the point of attachment. Docosanoyl = CCCCCCCCCCCCCCCCCCCCCC(=O)*; Arachidoyl = CCCCCCCCCCCCCCCCCCCC(=O)*; Stearoyl = CCCCCCCCCCCCCCCCCC(=O)*; X1 = CCCCCCCCCCCCCCCCCCCCCCCC(=O)*; Lauroyl = CCCCCCCCCCCC(=O)*; Octanoyl = CCCCCCCC(=O)*

T1 sequence (P04578 512-856): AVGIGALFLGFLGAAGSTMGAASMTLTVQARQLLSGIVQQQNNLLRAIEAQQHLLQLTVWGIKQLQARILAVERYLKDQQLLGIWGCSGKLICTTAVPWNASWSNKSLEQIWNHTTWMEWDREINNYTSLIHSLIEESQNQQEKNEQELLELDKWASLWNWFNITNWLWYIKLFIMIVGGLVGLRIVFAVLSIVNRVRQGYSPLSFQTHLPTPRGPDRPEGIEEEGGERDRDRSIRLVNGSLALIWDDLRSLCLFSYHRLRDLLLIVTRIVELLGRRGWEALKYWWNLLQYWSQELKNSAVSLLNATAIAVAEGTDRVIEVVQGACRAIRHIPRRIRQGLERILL
T2 sequence (P04578 528-566): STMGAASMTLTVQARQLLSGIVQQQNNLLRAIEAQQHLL

The term IC50 denotes the point on the concentration scale where inhibition reaches its midpoint. Turning to `CCCCCCCCCCCCCCCCCCCCCCCC(=O)NCCCC[C@H](NC(=O)[C@H](CCC(=O)O)NC(=O)[C@H](CC(C)C)NC(=O)[C@H](CCCCN)NC(=O)[C@H](CCCCN)NC(=O)[C@H](CC(C)C)NC(=O)[C@H](CCC(=O)O)NC(=O)[C@H](CCC(=O)O)NC(=O)[C@H](CCC(=O)O)NC(=O)[C@H](CC(N)=O)NC(=O)[C@H](CCCCN)NC(=O)[C@H](CCCCN)NC(=O)[C@H](CCC(N)=O)NC(=O)[C@H](CCC(N)=O)NC(=O)[C@H](CCC(=O)O)NC(=O)[C@H](CCC(=O)O)NC(=O)[C@H](C)NC(=O)[C@H](CCCCN)NC(=O)[C@H](CCCCN)NC(=O)[C@H](CC(C)C)NC(=O)[C@H](CC(C)C)NC(=O)[C@H](CCC(=O)O)NC(=O)[C@H](CCC(=O)O)NC(=O)[C@@H](NC(=O)[C@H](CCCCN)NC(=O)[C@H](CCC(N)=O)NC(=O)[C@H](CCC(=O)O)NC(=O)[C@H](Cc1c[nH]c2ccccc12)NC(C)=O)[C@@H](C)CC)C(N)=O` [LP-77] (Ac-WEQKIEELLKKAEEQQKKNEEELKKLEK(X1)-NH2), the IC50 in series [1] is 0.161 ± 0.00664 nM; in series [2], 7.98 ± 0.97 pM; in series [3], 12 ± 1.34 pM.
On the same counts, the results for `CCCCCCCCCCCCCCCCCCCCCC(=O)NCCCC[C@H](NC(=O)[C@H](CCC(=O)O)NC(=O)[C@H](CC(C)C)NC(=O)[C@H](CCCCN)NC(=O)[C@H](CCCCN)NC(=O)[C@H](CC(C)C)NC(=O)[C@H](CCC(=O)O)NC(=O)[C@H](CCC(=O)O)NC(=O)[C@H](CCC(=O)O)NC(=O)[C@H](CC(N)=O)NC(=O)[C@H](CCCCN)NC(=O)[C@H](CCCCN)NC(=O)[C@H](CCC(N)=O)NC(=O)[C@H](CCC(N)=O)NC(=O)[C@H](CCC(=O)O)NC(=O)[C@H](CCC(=O)O)NC(=O)[C@H](C)NC(=O)[C@H](CCCCN)NC(=O)[C@H](CCCCN)NC(=O)[C@H](CC(C)C)NC(=O)[C@H](CC(C)C)NC(=O)[C@H](CCC(=O)O)NC(=O)[C@H](CCC(=O)O)NC(=O)[C@@H](NC(=O)[C@H](CCCCN)NC(=O)[C@H](CCC(N)=O)NC(=O)[C@H](CCC(=O)O)NC(=O)[C@H](Cc1c[nH]c2ccccc12)NC(C)=O)[C@@H](C)CC)C(N)=O` [LP-78] (Ac-WEQKIEELLKKAEEQQKKNEEELKKLEK(Docosanoyl)-NH2) are 0.0544 ± 0.00709 nM, 3.73 ± 0.45 pM and 7.16 ± 2.01 pM.
As for `CCCCCCCCCCCCCCCCCCCC(=O)NCCCC[C@H](NC(=O)[C@H](CCC(=O)O)NC(=O)[C@H](CC(C)C)NC(=O)[C@H](CCCCN)NC(=O)[C@H](CCCCN)NC(=O)[C@H](CC(C)C)NC(=O)[C@H](CCC(=O)O)NC(=O)[C@H](CCC(=O)O)NC(=O)[C@H](CCC(=O)O)NC(=O)[C@H](CC(N)=O)NC(=O)[C@H](CCCCN)NC(=O)[C@H](CCCCN)NC(=O)[C@H](CCC(N)=O)NC(=O)[C@H](CCC(N)=O)NC(=O)[C@H](CCC(=O)O)NC(=O)[C@H](CCC(=O)O)NC(=O)[C@H](C)NC(=O)[C@H](CCCCN)NC(=O)[C@H](CCCCN)NC(=O)[C@H](CC(C)C)NC(=O)[C@H](CC(C)C)NC(=O)[C@H](CCC(=O)O)NC(=O)[C@H](CCC(=O)O)NC(=O)[C@@H](NC(=O)[C@H](CCCCN)NC(=O)[C@H](CCC(N)=O)NC(=O)[C@H](CCC(=O)O)NC(=O)[C@H](Cc1c[nH]c2ccccc12)NC(C)=O)[C@@H](C)CC)C(N)=O` [LP-79] (Ac-WEQKIEELLKKAEEQQKKNEEELKKLEK(Arachidoyl)-NH2), the results for the “Helix content (%)” value in series [4] and in series [5] were 55% and 48%, respectively. For the same molecule, the “[θ]222” value in series [4] is -18030. In addition, the figures for the IC50 in series [1], in series [2] and in series [3] were 0.0387 ± 0.00447 nM, 4.39 ± 0.67 pM and 5.7 ± 0.86 pM, respectively. Also, in series [5] (ellipticity at 222 nm, 20-98°C, 2°C/min), the “Tm (°C)” value stood at 56 °C.
For `CCCCCCCCCCCC(=O)NCCCC[C@H](NC(=O)[C@H](CCC(=O)O)NC(=O)[C@H](CC(C)C)NC(=O)[C@H](CCCCN)NC(=O)[C@H](CCCCN)NC(=O)[C@H](CC(C)C)NC(=O)[C@H](CCC(=O)O)NC(=O)[C@H](CCC(=O)O)NC(=O)[C@H](CCC(=O)O)NC(=O)[C@H](CC(N)=O)NC(=O)[C@H](CCCCN)NC(=O)[C@H](CCCCN)NC(=O)[C@H](CCC(N)=O)NC(=O)[C@H](CCC(N)=O)NC(=O)[C@H](CCC(=O)O)NC(=O)[C@H](CCC(=O)O)NC(=O)[C@H](C)NC(=O)[C@H](CCCCN)NC(=O)[C@H](CCCCN)NC(=O)[C@H](CC(C)C)NC(=O)[C@H](CC(C)C)NC(=O)[C@H](CCC(=O)O)NC(=O)[C@H](CCC(=O)O)NC(=O)[C@@H](NC(=O)[C@H](CCCCN)NC(=O)[C@H](CCC(N)=O)NC(=O)[C@H](CCC(=O)O)NC(=O)[C@H](Cc1c[nH]c2ccccc12)NC(C)=O)[C@@H](C)CC)C(N)=O` [LP-81] (Ac-WEQKIEELLKKAEEQQKKNEEELKKLEK(Lauroyl)-NH2), the “Helix content (%)” value in series [4] is recorded as 49%; in series [5], 37%. Moreover, the “[θ]222” value in series [4] is given as -16313. Besides, the results for the 50% inhibitory concentration (IC50) in series [1], in series [2] and in series [3] were 0.353 ± 0.0763 nM, 111 ± 68.1 pM and 183 ± 45.4 pM, respectively.
On to `CCCCCCCC(=O)NCCCC[C@H](NC(=O)[C@H](CCC(=O)O)NC(=O)[C@H](CC(C)C)NC(=O)[C@H](CCCCN)NC(=O)[C@H](CCCCN)NC(=O)[C@H](CC(C)C)NC(=O)[C@H](CCC(=O)O)NC(=O)[C@H](CCC(=O)O)NC(=O)[C@H](CCC(=O)O)NC(=O)[C@H](CC(N)=O)NC(=O)[C@H](CCCCN)NC(=O)[C@H](CCCCN)NC(=O)[C@H](CCC(N)=O)NC(=O)[C@H](CCC(N)=O)NC(=O)[C@H](CCC(=O)O)NC(=O)[C@H](CCC(=O)O)NC(=O)[C@H](C)NC(=O)[C@H](CCCCN)NC(=O)[C@H](CCCCN)NC(=O)[C@H](CC(C)C)NC(=O)[C@H](CC(C)C)NC(=O)[C@H](CCC(=O)O)NC(=O)[C@H](CCC(=O)O)NC(=O)[C@@H](NC(=O)[C@H](CCCCN)NC(=O)[C@H](CCC(N)=O)NC(=O)[C@H](CCC(=O)O)NC(=O)[C@H](Cc1c[nH]c2ccccc12)NC(C)=O)[C@@H](C)CC)C(N)=O` [LP-82] (Ac-WEQKIEELLKKAEEQQKKNEEELKKLEK(Octanoyl)-NH2), for which the results for the “Helix content (%)” value in series [4] and in series [5] were 39% and 22%, respectively. In addition, the “[θ]222” value in series [4] is on record as -12910. Further, the IC50 in series [1] came out at 3.21 ± 1.43 nM; in series [2] it was 1010 ± 344 pM; in series [3], 3710 ± 1080 pM.
For `CCCCCCCCCCCCCCCCCC(=O)NCCCC[C@H](NC(=O)[C@H](CCC(=O)O)NC(=O)[C@H](CC(C)C)NC(=O)[C@H](CCCCN)NC(=O)[C@H](CCCCN)NC(=O)[C@H](CC(C)C)NC(=O)[C@H](CCC(=O)O)NC(=O)[C@H](CCC(=O)O)NC(=O)[C@H](CCC(=O)O)NC(=O)[C@H](CC(N)=O)NC(=O)[C@H](CCCCN)NC(=O)[C@H](CCCCN)NC(=O)[C@H](CCC(N)=O)NC(=O)[C@H](CCC(N)=O)NC(=O)[C@H](CCC(=O)O)NC(=O)[C@H](CCC(=O)O)NC(=O)[C@H](C)NC(=O)[C@H](CCCCN)NC(=O)[C@H](CCCCN)NC(=O)[C@H](CC(C)C)NC(=O)[C@H](CC(C)C)NC(=O)[C@H](CCC(=O)O)NC(=O)[C@H](CCC(=O)O)NC(=O)[C@@H](NC(=O)[C@H](CCCCN)NC(=O)[C@H](CCC(N)=O)NC(=O)[C@H](CCC(=O)O)NC(C)=O)[C@@H](C)CC)C(N)=O` [LP-88] (Ac-EQKIEELLKKAEEQQKKNEEELKKLEK(Stearoyl)-NH2), the “Helix content (%)” value came to 55% in series [4] and 34% in series [5]. Further, the “[θ]222” value in series [4] is -18242. The concentration for half-maximal inhibition (IC50) in series [1] is 0.0144 ± 0.00137 nM; in series [2], 4.26 ± 1.3 pM; in series [3], 4.29 ± 0.58 pM.
For “Ac-WEQKIEELLKKAEEQQKKNEEELKKLEK-NH2 [Lipopeptide P-52]”, the IC50 in series [1] was 1.34 ± 0.119 nM; in series [2] it was 2620 ± 235 pM; in series [3], 2170 ± 146 pM.

Values taken from publication PMC6375636, “Monotherapy with a low-dose lipopeptide HIV fusion inhibitor maintains long-term viral suppression in rhesus macaques” (PLoS Pathogens, 2019).
